Test results as given in US8865911B2, “Compounds and their use as BACE inhibitors” (Astrazeneca AB, priority 2010, dated 2014).

Test system: sAPPβ release, SH-SY5Y cells
Experiment: sAPPβ release assay
Format: cell-based
Conditions: compounds incubated 17 h, MSD detection
Procedure: Thaw cells and seed at a conc. of around 10000 cells/well in DMEM/F-12 with Glutamax, 10% FCS and 1% non-essential amino acids to a 384-well tissue culture treated plate, 100 μL cell susp/well. […] The cell medium was removed, followed by addition of 30 μL compound diluted in DMEM/F-12 with Glutamax, 10% FCS, 1% non-essential amino acids and 1% PeSt to a final conc. of 1% DMSO. The compounds were incubated with the cells for 17 h (overnight) at 37° C., 5% CO2. Meso Scale Discovery (MSD) plates were used for the detection of sAPPβ release. MSD sAPPβ plates were blocked in 1% BSA in Tris wash buffer (40 μL/well) for 1 h on shake at r.t. and washed 1 time in Tris wash buffer (40 μL/well). 20 μL of medium was transferred to the pre-blocked and washed MSD sAPPβ microplates, and the cell plates were further used in an ATP assay to measure cytotoxicity. The MSD plates were incubated with shaking at r.t. for 2 h and the media discarded. 10 μL detection antibody was added (1 nM) per well followed by incubation with shaking at r.t. for 2 h and then discarded. 40 μL Read Buffer was added per well and the plates were read in a SECTOR Imager.

Row | SMILES | IC50 | further results
1 | CCC1=NC2(N=C1N)c1cc(-c3cccc(C#N)c3)ccc1C[C@]21CC[C@@H](OC)CC1 (single isomer, unassigned) [Example 71 Isomer 1, 3-[(1r,4r)-4″-amino-5″-ethyl-4-methoxy-3′H-dispiro-[cyclohexane-1,2′-indene-1′,2″-imidazol]-6′-yl]benzonitrile] |  | IC50 (listed as 71 Isomer 1): 5.2 nM
2 | CCC1=NC2(N=C1N)c1cc(-c3cccc(C#N)c3)ccc1C[C@]21CC[C@@H](OC)CC1 (single isomer, unassigned) [Example 71 Isomer 2, 3-[(1r,4r)-4″-amino-5″-ethyl-4-methoxy-3′H-dispiro-[cyclohexane-1,2′-indene-1′,2″-imidazol]-6′-yl]benzonitrile] |  | IC50 (listed as 71 Isomer 2): 763 nM
3 | CO[C@H]1CC[C@]2(CC1)Cc1ccc(C#CC(C)(C)C)cc1C21N=C(C)C(N)=N1 (single isomer, unassigned; isomer 1) [Example 20h Isomer 1, (1r,4r)-6′-(3,3-dimethylbut-1-yn-1-yl)-4-methoxy-5″-methyl-3′H-dispiro[cyclohexane-1,2′-indene-1′,2″-imidazol]-4″-amine] | 277 nM | 
4 | CO[C@H]1CC[C@]2(CC1)Cc1ccc(-c3cc(F)cc(C#N)c3)cc1C21N=C(C)C(N)=N1 (single isomer, unassigned; isomer 1) [Example 76 Isomer 1, 3-[(1r,4r)-4″-amino-4-methoxy-5″-methyl-3′H-dispiro[cyclohexane-1,2′-indene-1′,2″-imidazol]-6′-yl]-5-fluorobenzonitrile] | 1.2 nM | 
5 | CO[C@H]1CC[C@]2(CC1)Cc1ccc(-c3cc(Br)cc(C#N)c3)cc1C21N=C(C)C(N)=N1 (single isomer, unassigned; isomer 1) [Example 94 Isomer 1, 3-[(1r,4r)-4″-Amino-4-methoxy-5″-methyl-3′H-dispiro[cyclohexane-1,2′-indene-1′,2″-imidazol]-6′-yl]-5-bromobenzonitrile] | 0.17 nM | 
